Read-outs that look alike come from different tables or passages of the source.
Columns and labels:
[1] = SOD-like activity: inhibition of superoxide reduction of nitroblue tetrazolium (DMSO-KO2 / xanthine-xanthine oxidase); format: biochemical; conditions: for IC50 / Percent Reactivity (SOD-like activity): Table I; for IC50: read-out: Concentration: compound required for 50% inhibition of superoxide reduction of nitroblue tetrazolium; for Percent Reactivity (SOD-like activity): relative to Cu-Zn SOD = 100
[2] = cited from earlier work
[3] = pH 7.0; cited from earlier work
[4] = pH 12; cited from earlier work
patients = conditions: ongoing clinical trials; cited from earlier work
mice = test: Acute toxicity in mice (subcutaneous); format: in vivo; conditions: subcutaneous injection, 10080 min
Description: (§1) The particular embodiment described in complete detail herein concerns the use of Cu(II)(3,5-dips)2. […] A minimum prophylatic dose would be about 0.001 mg/kg, while a therapeutic dose would range from about 1 mg to 100 mg/kg, depending upon the radiation dose. Therapeutic doses would be initiated about two weeks before radiotherapy, and would continue as necessary after the radiation treatment. For cases of accidental exposure, treatment would be initiated immediately after exposure and continued as necessary thereafter. Prophylactic doses would be taken on a continuing basis, for example a daily basis, as long as the recurrent radiation exposure continued. In any of these cases, the route of administration might be oral, topical, rectal or parenteral (e.g., intramuscular, intravenous, subcutaneous, or intraperitoneal).

human beings = test: Predicted toxicity in human beings by extrapolation; conditions: per body weight
Description: as §1

rats = test: Acute toxicity in rats (subcutaneous); format: in vivo
Description: as §1
Copper 3,5-diisopropylsalicylate was synthesized according to the method of Sorenson, J. Med. Chem. 19:135 (1976), which is incorporated herein by reference.

[5] = Rate of superoxide dismutation; format: biochemical; conditions: Table I
Excerpt: The enzyme superoxide dismutase (SOD) plays a significant role in the defense against oxygen toxicity in aerobic organisms. Superoxide dismutase catalyzes the dismutation of O2^-, as follows:.
2 ^- O-O^. +2H^+ →H2 O2 +^. O-O^.
**Weser, et al., In "Inflammatory Diseases and Copper", Sorenson (ed.),
Humana Press: Clifton, New Jersey (1982), p. 513

lethally irradiated mice = test: Radioprotection: survival of lethally irradiated (60Co) mice; format: in vivo, female B6CBFl mice
Description: One group of 22-control and two groups of 24-treated 8 to 10 week old female B6CBFl mice (Cumberland View Farms, Clinton, Tennessee) were used. Control animals were given a subcutaneous (sc) injection of 0.3 ml of vehicle (0.25% Tween 80 in 0.9% pyrogen-free sterile saline) 24 hours before irradiation. One treatment group was given a single sc injection of 0.49 mM/kg of Cu(II)(3,5-dips)2 in 0.3 ml of vehicle 3 hours before irradiation and the other group was given the same treatment 24 hours before irradiation.
This radiation dose was measured with an electrometer connected to 0.05 ml NBS calibrated ion chambers positioned inside wax phantom mice placed in plexiglass cages. The tissue to air ratio for these phantom mice has been determined to be 97 percent. Control and treated mice were housed 5 mice per cage and fed mouse chow and water ad libitum for the 30 day observation period.

[6] = 0.49 mM/kg sc 3 hours before 10 Gy, 30 day observation
[7] = 0.49 mM/kg sc 24 hours before 10 Gy, 30 day observation

Q: What does the source list for `CC(=O)Oc1ccccc1C(=O)[O-].CC(=O)Oc1ccccc1C(=O)[O-].CC(=O)Oc1ccccc1C(=O)[O-].CC(=O)Oc1ccccc1C(=O)[O-].CS(C)=O.CS(C)=O.[Cu+2].[Cu+2]` [Cu(II)2 (acetylsalicylate)4 (DMSO)2]?
A: IC50 [1]: 2800 nM; Percent Reactivity (SOD-like activity) [1]: 0.69%

Q: Which “superoxide scavenging (in words)” value [1] does the source give for `CC(=O)Oc1ccccc1C(=O)[O-].CC(=O)Oc1ccccc1C(=O)[O-].CC(=O)Oc1ccccc1C(=O)[O-].CC(=O)Oc1ccccc1C(=O)[O-].CS(C)=O.CS(C)=O.CS(C)=O.CS(C)=O.[Cu+2].[Cu+2]` [Cu(II)2 (acetylsalicylate)4 (dimethylsulfoxide)4] here?
A: superoxide scavengers

Q: For `CC(=O)Oc1ccccc1C(=O)[O-].CC(=O)Oc1ccccc1C(=O)[O-].CC(=O)Oc1ccccc1C(=O)[O-].CC(=O)Oc1ccccc1C(=O)[O-].[Cu+2].[Cu+2].c1ccncc1.c1ccncc1` [Cu(II)2 (acetylsalicylate)4 (pyridine)2], which IC50 [1] is on record?
A: 2700 nM

Q: And the “Percent Reactivity (SOD-like activity)” value [1]?
A: 0.32%

Q: For `CC(=O)Oc1ccccc1C(=O)[O-].CC(=O)Oc1ccccc1C(=O)[O-].CC(=O)Oc1ccccc1C(=O)[O-].CC(=O)Oc1ccccc1C(=O)[O-].[Cu+2].[Cu+2].c1ccncc1.c1ccncc1.c1ccncc1.c1ccncc1` [Cu(II)2 (acetylsalicylate)4 (pyridine)4], which “superoxide scavenging (in words)” value [1] is on record?
A: superoxide scavengers

Q: Which “superoxide scavenging (in words)” value [1] does the source give for `CC(C)(C)c1cc(C(=O)[O-])c(O)c(C(C)(C)C)c1.CC(C)(C)c1cc(C(=O)[O-])c(O)c(C(C)(C)C)c1.[Cu+2]` [Cu(II)(3,5-ditertiarybutylsalicylate)2] here?
A: superoxide scavengers

Q: What about the IC50 [1] of the same compound?
A: 6200 nM

Q: What about the “Percent Reactivity (SOD-like activity)” value [1] of the same compound?
A: 0.74%

Q: Which “Rate of superoxide dismutation” value ([2]; Table I, footnote ** (Weser et al.)) does the source give for `O=C(O)c1ccccc1[O-].O=C(O)c1ccccc1[O-].[Cu+2]` [Cu(II)(salicylate)2] here?
A: 1.6 × 10 M^-1 s^-1

Q: What about the “superoxide scavenging (in words)” value [1] of the same compound?
A: superoxide scavengers

Q: And the IC50 [1]?
A: 4600 nM

Q: What about the “Percent Reactivity (SOD-like activity)” value [1] of the same compound?
A: 0.65%

Q: For `O=C([O-])CN(CCN(CC(=O)[O-])CC(=O)O)CC(=O)O.[Na+].[Na+]` [Na2 EDTA], which “Rate, Cu(II)(L)2 + HO^.” value [3] is on record?
A: 4e+09 M⁻¹ s⁻¹

Q: And the “Rate, Cu(II)(L)2 + e^- aq” value [4]?
A: 1e+10 M⁻¹ s⁻¹

Q: Which undesirable side effects (patients) does the source give for `NCCCNCCSP(=O)(O)O` [WR2721, S-2-(3-aminopropylamino) ethyl-phosphorothioic acid] here?
A: emesis, hypertension, hypotension, somnolence and allergy

Q: Which “superoxide scavenging (in words)” value [1] does the source give for Cu(II)2 (acetylsalicylate)4 here?
A: superoxide scavengers

Q: And the IC50 [1]?
A: 3100 nM

Q: What about the “Percent Reactivity (SOD-like activity)” value [1] of the same compound?
A: 0.043%

Q: With bovine SOD: pure bovine SOD as the compound, how does the “sensitivity of the assay, ug SOD per unit of activity” value ([1]; pure bovine SOD, per unit of activity, pH 7.8) read?
A: 0.85 µg

Q: Which LD50/7 (mice) does the source give for “copper 3,5-diisopropylsalicylate [Cu(II)(3,5-dips)2]” here?
A: at least 280 mg/kg

Q: And the “superoxide scavenging (in words)” value [1]?
A: superoxide scavengers

Q: And the IC50 [1]?
A: 2900 nM

Q: What about the “efficiency in disproportionating superoxide compared with Cu-Zn SOD (in words)” value ([1]; based on Table I) of the same compound?
A: not as efficient as Cu-Zn SOD

Q: And the “mean SOD activity” value ([1]; modified assay, DMSO-KO2, pH 7.8)?
A: 17,400±1,800 units per milligram

Q: And the “Percent Reactivity (SOD-like activity)” value [1]?
A: 0.70%

Q: And the “predicted LD50 in human beings” value (human beings)?
A: approximately 250 mg/kg

Q: And the LD50 (rats; subcutaneous)?
A: 240 +33 mg/kg

Q: And the LD50/7 (rats; subcutaneous injection, 10080 min)?
A: 240 mg/kg

Q: And the Rate of superoxide dismutation [5]?
A: 1e+09 to 2e+09 M⁻¹ s⁻¹

Q: What about the “day post-irradiation after which none died” value (lethally irradiated mice; 0.49 mM/kg sc 3 hours before 10 Gy) of the same compound?
A: 18 days

Q: And the “number of surviving mice” value (lethally irradiated mice; [6])?
A: 8 mice

Q: What about the survival (lethally irradiated mice; [6]) of the same compound?
A: Thirty-three

Q: What about the “day post-irradiation after which none died” value (lethally irradiated mice; 0.49 mM/kg sc 24 hours before 10 Gy) of the same compound?
A: 19 days

Q: And the “number of surviving mice” value (lethally irradiated mice; [7])?
A: 14 mice

Q: And the survival (lethally irradiated mice; [7])?
A: Fifty-eight

Q: What about the survival (lethally irradiated mice; pretreatment interval 3 h, restated in comparison with Cu-Zn SOD) of the same compound?
A: 33%

Q: What about the survival (lethally irradiated mice; pretreatment interval 24 h, restated in comparison with Cu-Zn SOD) of the same compound?
A: 58%

Q: And the survivors (lethally irradiated mice; similarly treated mice, irradiated with 12 Gy)?
A: no survivors

Q: And the “protection compared with Cu-Zn SOD (in words)” value (lethally irradiated mice; vs Cu-Zn SOD data of Petkau, different conditions)?
A: much greater protection

Q: Which “rate of O2^- dismutation, k” value ([2]; Czapski 1971) does the source give for “superoxide dismutase: enzyme that catalyzes the dismutation of O2^-; native SOD has a molecular weight of about 32,000 daltons” here?
A: 1.3e+09 M⁻¹ s⁻¹
